We go through four molecules from US8039514B2, “Sulfonamide compounds and use thereof” (Asahi Kasei Pharma Corporation, priority 2008, dated 2011).

Data set [1] relates to PTH concentration in blood. The conditions noted are these: single oral administration, rat; cited from earlier work.
The conditions of data set [2]: oral everyday for eight weeks, rat with removed ovary; cited from earlier work.
The target in data set [3] is T1, human calcium-sensing receptor (CaSR) (Homo sapiens, UniProt P41180).
T1 construct: expressed in transfected cells
T1 sequence (P41180 20-1078): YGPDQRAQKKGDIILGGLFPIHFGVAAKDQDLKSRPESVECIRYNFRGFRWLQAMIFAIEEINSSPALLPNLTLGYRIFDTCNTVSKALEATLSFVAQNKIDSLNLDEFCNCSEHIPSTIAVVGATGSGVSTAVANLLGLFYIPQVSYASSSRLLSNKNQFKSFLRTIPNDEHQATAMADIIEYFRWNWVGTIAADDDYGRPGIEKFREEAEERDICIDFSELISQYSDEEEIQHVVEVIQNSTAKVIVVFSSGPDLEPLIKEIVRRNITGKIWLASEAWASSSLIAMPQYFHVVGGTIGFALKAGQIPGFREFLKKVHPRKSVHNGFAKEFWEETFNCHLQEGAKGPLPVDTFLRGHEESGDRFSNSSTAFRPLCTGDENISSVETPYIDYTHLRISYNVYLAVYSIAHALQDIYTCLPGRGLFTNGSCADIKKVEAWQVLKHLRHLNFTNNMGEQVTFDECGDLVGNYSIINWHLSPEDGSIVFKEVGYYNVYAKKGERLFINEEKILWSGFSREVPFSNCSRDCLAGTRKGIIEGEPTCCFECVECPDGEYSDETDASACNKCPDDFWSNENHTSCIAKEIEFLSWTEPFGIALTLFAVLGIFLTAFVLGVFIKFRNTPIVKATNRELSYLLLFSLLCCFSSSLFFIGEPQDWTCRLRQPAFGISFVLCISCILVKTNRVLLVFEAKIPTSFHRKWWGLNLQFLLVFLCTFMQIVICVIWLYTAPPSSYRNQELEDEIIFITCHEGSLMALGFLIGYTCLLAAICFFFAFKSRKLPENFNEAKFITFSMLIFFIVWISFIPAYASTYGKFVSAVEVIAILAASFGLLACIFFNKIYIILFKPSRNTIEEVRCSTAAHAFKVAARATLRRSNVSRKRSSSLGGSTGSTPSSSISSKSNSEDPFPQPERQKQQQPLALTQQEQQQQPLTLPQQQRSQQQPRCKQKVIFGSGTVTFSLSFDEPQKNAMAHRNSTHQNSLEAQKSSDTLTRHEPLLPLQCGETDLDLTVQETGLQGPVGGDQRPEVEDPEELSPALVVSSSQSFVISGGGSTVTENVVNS
Nature of the data set: intracellular Ca assay, CaSR antagonist activity in HEK293/hCaSR cells. It is filed as cell-based. The conditions noted are these: Fura2-AM, inhibition of response to calcium chloride ligand solution, read-out: IC50 values according to the intracellular Ca assay (CaSR antagonist activity). The method in brief:
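HEK293/hCaSR cells were loaded with Fura2-AM and pre-incubated with compound for 160 s at 37° C in HEPES buffer (pH 7.4, 0.8 mM CaCl2), then challenged with calcium ligand solution. Read-out was the peak 340/380 nm fluorescence ratio; inhibition is relative to no-compound (0%) and no-calcium-ligand (100%) controls.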

The subject of data set [4] is PTH concentration in blood. It is filed as in vivo. The conditions noted are these: for death or abnormality of the rat administered with the compounds: 0.1-100 mg/kg intravenous or oral; for PTH concentration in blood after 30 minutes / dose dependence of PTH concentration increase / PTH concentration in blood 5 minutes after the intravenous administration: rat, 0.1-100 mg/kg; for PTH concentration in blood 5 minutes after the intravenous administration: Rat Intact PTH ELISA, versus normal value. As for the experimental part: Compounds of Exp. 3-49, Exp. 3-57, Exp. 3-93, Exp. 3-95, Exp. 3-102, Exp. 3-106, Exp. 8-5, Exp. 10-1 and Exp. 10-25 were chosen as a test compound. Each of them was either dissolved or suspended in physiological saline or distilled water containing 1-20% DMSO, 5% CremophorEL, 10-40% PEG300, etc. and administered intravenously (tail vein or femoral vein) or orally administered to a 7 week to 10 week old male SD-IGS rat (Nippon Charles-River) with dosage of 0.1-100 mg/kg. After that, blood sample was taken from subclavian vein over the time and serum was separated. Concentration of PTH in blood was measured using Rat Intact PTH ELISA Kit (manufactured by Immutopics) to evaluate an activity of increasing PTH concentration in blood. […] Therefore, the safety of these compounds was confirmed again.
On the technique in general: ELISA stands for enzyme-linked immunosorbent assay.

For data set [5] the following is noted: 20 μg subcutaneously everyday for 19 months in average; cited from earlier work.
The conditions of data set [6]: PTH 20 μg subcutaneous everyday; ALN 10 mg oral everyday; cited from earlier work.

Where only a bound is given, the exact number is not on record here.

`CC(C)(Cc1ccc2ccccc2c1)NC[C@@H](O)COc1cccc(Cl)c1C#N` [NPS2143]: in data set [1], the “PTH concentration in blood” value was “continuously increased”. Besides, in data set [2], the “bone formation evaluated by bone morphometry” value is “increased” and the bone mineral density entry is listed as “remained almost the same”.

Take `CN(C[C@H](O)CNC(C)(C)CC1Cc2ccccc2C1)S(=O)(=O)c1cccc(-c2ccc(CCC(=O)O)cc2)c1` [Exp. 3-57, (R)-3-(3′ (N-(3-(1-(2,3-dihydro-1H-inden-2-yl)-2-methylpropan-2-ylamino)-2-hydroxypropyl)-N-methylsulfamoyl)biphenyl-4-yl)propionic acid]: the IC50 in data set [3] lay within 300 to 1000 nM. Besides, in data set [4], the “death or abnormality of the rat administered with the compounds” value is reported as “no death or abnormality was found”, the “PTH concentration in blood after 30 minutes” value is on record as “returned to a normal value”, the “dose dependence of PTH concentration increase” value is recorded as “dependent on the administration amount of the compound” and the “PTH concentration in blood 5 minutes after the intravenous administration” value is on record as “increased at least twice the normal value”.

Take `CN(C[C@H](O)CNC(C)(C)CC1Cc2ccccc2C1)S(=O)(=O)c1cccc(-c2cccc(C(=O)O)c2)c1` [Exp. 3-49, (R)-3′-(N-(3-(1-(2,3-dihydro-1H-inden-2-yl)-2-methylpropan-2-ylamino)-2-hydroxypropyl)-N-methylsulfamoyl)biphenyl-3-carboxylic acid]: the IC50 in data set [3] was no more than 300 nM. In data set [4], the “death or abnormality of the rat administered with the compounds” value was “no death or abnormality was found”, the “PTH concentration in blood after 30 minutes” value is on record as “returned to a normal value”, the “dose dependence of PTH concentration increase” value is “dependent on the administration amount of the compound” and the “PTH concentration in blood 5 minutes after the intravenous administration” value is reported as “increased at least twice the normal value”.

B1: PTH: parathyroid hormone (PTH) preparation, a peptide preparation injected subcutaneously (peptide, UniProt P01270 32-115, looked up)
Parathyroid hormone: SVSEIQLMHNLGKHLNSMERVEWLRKKLQDVHNFVALGAPLAPRDAGSQRPRKKEDNVLVESHEKSLGEADKADVNVLTKAKSQ
modifications: Parathyroid hormone
notes: parathyroid hormone (PTH) preparation, a peptide preparation injected subcutaneously
Consider B1, for which, in data set [5], the “bone mineral density increase in lumbar spine” value is 9.7%, the “bone mineral density increase in neck of femur” value is given as 2.8%, the “inhibition of frequency of occurrence of new vertebral body fracture” value is recorded as 65% and the “inhibition of frequency of occurrence of non-vertebral body fracture” value is reported as 53%. In addition, in data set [6], the “increase of bone mineral density of lumbar spine 18 months after the administration” value is on record as 10.3%.

By IC50 is commonly meant the point on the concentration scale where inhibition reaches its midpoint.
